In ChEMBL document CHEMBL5729548, “ACLY inhibitors and uses thereof” (2023) one finds IC50 data, which are given here for one compound.

The target in this experiment is T1, ATP-citrate synthase (Homo sapiens, UniProt P53396).
T1 sequence (P53396 whole entry): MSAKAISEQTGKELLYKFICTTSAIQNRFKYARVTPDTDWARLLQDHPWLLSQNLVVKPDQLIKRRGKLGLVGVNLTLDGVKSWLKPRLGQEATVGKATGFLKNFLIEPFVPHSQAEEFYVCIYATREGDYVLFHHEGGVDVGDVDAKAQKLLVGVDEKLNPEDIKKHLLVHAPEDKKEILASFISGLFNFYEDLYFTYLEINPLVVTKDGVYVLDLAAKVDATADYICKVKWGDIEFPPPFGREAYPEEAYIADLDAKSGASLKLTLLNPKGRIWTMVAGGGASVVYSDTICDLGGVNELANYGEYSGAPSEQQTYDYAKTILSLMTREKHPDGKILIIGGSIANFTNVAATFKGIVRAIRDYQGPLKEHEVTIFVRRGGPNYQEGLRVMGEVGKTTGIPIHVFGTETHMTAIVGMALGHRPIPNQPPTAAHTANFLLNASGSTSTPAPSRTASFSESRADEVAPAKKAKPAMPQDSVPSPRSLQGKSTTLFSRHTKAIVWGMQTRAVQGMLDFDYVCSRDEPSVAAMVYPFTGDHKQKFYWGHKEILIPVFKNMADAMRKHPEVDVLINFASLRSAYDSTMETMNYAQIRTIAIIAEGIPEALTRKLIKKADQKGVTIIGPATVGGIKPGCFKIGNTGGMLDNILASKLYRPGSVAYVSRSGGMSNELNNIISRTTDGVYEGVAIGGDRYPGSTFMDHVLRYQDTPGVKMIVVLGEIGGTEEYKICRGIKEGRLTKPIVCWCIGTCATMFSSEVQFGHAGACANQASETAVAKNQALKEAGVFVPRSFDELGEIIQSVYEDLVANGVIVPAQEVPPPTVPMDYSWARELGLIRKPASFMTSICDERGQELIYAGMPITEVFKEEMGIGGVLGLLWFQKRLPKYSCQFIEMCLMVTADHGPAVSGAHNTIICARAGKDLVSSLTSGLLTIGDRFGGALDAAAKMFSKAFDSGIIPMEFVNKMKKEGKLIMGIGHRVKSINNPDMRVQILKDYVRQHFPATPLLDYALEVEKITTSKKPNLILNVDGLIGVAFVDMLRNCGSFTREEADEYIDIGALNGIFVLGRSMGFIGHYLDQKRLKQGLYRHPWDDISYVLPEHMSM
Nature of the experiment: ADP-Glo Assay: Materials and Instruments Used in the ADP-Glo AssayVendor Cat No.Materials ACL Sino Biological 11769-H07BCoANa2 Sigma C3144Potassium Citrate Sigma 89306ATP Promega V915BADP-GloTM Kinase Assay Promega V9102kitHEPES Life Technologies 15630080MgCl2 Sigma M1028Brij 35 detergent Merck 203728DTT Sigma 646563DMSO MP 196055Optiplate-384, White 384- Perkin Elmer 6007290well384 dilution …. On the technique in general: ADP-Glo first removes unused ATP, then detects ADP through luciferase.

Some results are limits rather than exact numbers.

By IC50 is commonly meant the point on the concentration scale where inhibition reaches its midpoint. Low readings indicate inhibition by little substance, high ones a need for much substance. As to `O=C(c1cc(Cl)c(O)c(S(=O)(=O)Nc2cc(-c3cc4ccccc4s3)c(F)cc2OC(F)(F)F)c1)N1CCC1`, the IC50 is less than 50 nM.
